IC50 data for 1 compound are collected here from patent US20090062355A1, “Pharmaceutical Product” (Takeda Pharmaceutical Company Limited, priority 2006, published 2009).

The assay concerns Human Peripheral Blood Mononuclear Cell. The assay is described as follows: Suppressive action on production of mediator from human peripheral blood mononuclear cell. The class given is cell-based. The settings on record: LPS 10 ng/mL and INFα 1 U/mL, overnight, ELISA. As to the method: Peripheral blood mononuclear cells were separated from three healthy subjects by a conventional method, suspended in RPMI1640 medium supplemented with 10% inactivated fetal bovine serum, and plated on a 96 well microplate at 8×10^4 cells/well. Test compound 2 (compound 8′ of Reference Example D7), LPS (final concentration 10 ng/mL) and INFα (final concentration 1 U/mL) were added, cultured overnight, and TNF-α, IL-6 and IL-8 in the culture supernatant was quantified using a commercially available ELISA kit. Test substance was dissolved in N,N-dimethylformamide to 10 mM, diluted with the medium to 10-fold concentration of the final concentration and 1/10 thereof was added. Test compound 2 suppressed production of TNFα, IL-6 and IL-8 at an equivalent IC50. In addition, no difference in the suppressive activity was found in the peripheral blood mononuclear cells of the three subjects.
For orientation: In an ELISA, binding on a coated surface is turned into a signal by an enzyme label.

The IC50 is the point on the concentration scale where inhibition reaches its midpoint.

Read-outs that look alike come from different tables or passages of the source.

Turning to `CCOC(=O)C1=CCOCC1S(=O)(=O)Nc1ccc(F)cc1Cl` (stereo not drawn) [test compound 2, ethyl 3-[(2-chloro-4-fluorophenyl)sulfamoyl]-3,6-dihydro-2H-pyran-4-carboxylate], the IC50 runs as follows: (subject A, read-out: IC50, IL-6 production) 36 nM; (subject A, read-out: IC50, IL-8 production) 83 nM; (subject A, read-out: IC50, TNF-α production) 43 nM; (subject B, read-out: IC50, IL-6 production) 51 nM; (subject B, read-out: IC50, IL-8 production) 130 nM; (subject B, read-out: IC50, TNF-α production) 39 nM. For the same compound, the half-maximal inhibitory concentration (IC50) (subject C, read-out: IC50, IL-6 production) came to 35 nM; the half-inhibitory concentration (IC50) (subject C, read-out: IC50, IL-8 production) was 81 nM; the half-maximal inhibitory concentration (IC50) (subject C, read-out: IC50, TNF-α production) was found to be 32 nM.
